According to PMC10515483, “Structure–Reactivity Studies of 2-Sulfonylpyrimidines Allow Selective Protein Arylation” (Bioconjugate Chemistry, 2023):
Entries after “also recorded” stand apart in the source; their conditions may differ.

Legend:
[1] = GSH arylation rate constants (NMR; UV-vis for fast warheads); assay type: physicochemical; details: for k: Table S8, rate constants obtained at pH = 7; for k/kref / ΔΔG≠1exp: relative to 4q; for ΔΔG≠1exp: via -RTln(k/kref)
In short: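 Second-order rate constants k for GSH arylation derived from pseudo-first-order k′ (warhead:GSH 1:10), by normalized NMR integration of the disappearing warhead signal over 6 h; TMSP internal standard. KPi buffer with 5% d6-DMSO, pH 7.0 and 6.5, 20 °C; UV–vis used for fast warheads. Mean of ≥2 independent runs.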

FGE-C341S = biological target: T1, FGE-C341S (Homo sapiens, UniProt Q8NBK3, C341S); assay: Differential scanning fluorimetry (DSF); assay type: binding; details: 100 μM compound; 10 µM FGE; read-out: Protein thermal stability ΔTm
T1 construct: His7 (C); made in house; host or cells: High Five insect cells (baculovirus, pAcGP67B-His7)
T1 sequence (Q8NBK3 34-374 C341S): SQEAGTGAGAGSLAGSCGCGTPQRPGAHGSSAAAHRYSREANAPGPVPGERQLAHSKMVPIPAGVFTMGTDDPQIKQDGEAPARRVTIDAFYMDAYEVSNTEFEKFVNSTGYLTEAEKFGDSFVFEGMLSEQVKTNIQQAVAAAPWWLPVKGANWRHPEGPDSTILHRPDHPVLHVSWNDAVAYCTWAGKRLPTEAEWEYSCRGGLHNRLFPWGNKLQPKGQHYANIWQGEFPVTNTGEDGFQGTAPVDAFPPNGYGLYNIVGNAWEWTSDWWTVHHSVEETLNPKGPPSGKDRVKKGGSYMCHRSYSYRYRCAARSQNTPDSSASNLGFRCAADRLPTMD
Description: (§1) We also probed the general effect of 2-SPs on protein stability by using differential scanning fluorimetry (DSF). […] Mutants of the 25 kDa DNA-binding domain of the tumor suppressor p53 are notorious for their reduced thermal stability and denaturation/aggregation propensity.[37] The 56 kDa armadillo domain (ARD) of β-catenin mediates canonical Wnt signaling and plays a central role in embryogenesis and tissue homeostasis.[38] FGE (37 kDa) is the only known activator of human sulfatases, and its stability is susceptible to modification of its cysteines.[39] […]
The cloning of human FGE-WT cDNA into baculoviral transfer vector pAcGP67B-His7 and the generation of the recombinant virus (in Sf9 cells) for expression of C-terminally His-tagged recombinant human FGE in High Five insect cells have been […]
were generated by site -directed PCR mutagenesis using pAcGP67B-FGE-WT-His7 as template and the […]
-3’. All expression plasmids were verified by sequencing of the entire coding region to exclude any undesired PCR -derived errors. The purification method was essentially performed as described in Peng et al., with one modification. The size exclusion […]
chromatography (His -trap) step foll owed directly by a second step purification using the ion -exchange column chromatography (Resource -Q). […]

p53-Y220C = biological target: T2, p53-Y220C (Homo sapiens, UniProt P04637, M133L/N239Y/N268D/V203A/Y220C); assay: Differential scanning fluorimetry (DSF); assay type: binding; details: 100 μM compound; 8 µM p53-Y220C; read-out: Protein thermal stability ΔTm
T2 construct: (residues 94-312); 6xHis/lipoyl domain/TEV protease cleavage site (N, cleaved yes); made in house; host or cells: E. coli C41
Description: as §1
described.7 Briefly, the N-terminal fusion protein (6xHis/lipoyl domain/TEV protease cleavage site) was overexpressed using E. coli C41 cells in 2xTY medium at 20°C for 16 h and purified using standard Ni-affinity chromatography protocols. […]
was further purified using a Heparin column. Finally, gel filtration chromatography was performed using a Superdex 75 16/60 preparative gel filtration column (GE Healthcare) in a 25 mM KPi (pH 7.2), 150 […]
mM NaCl, and 1 mM TCEP buffer. […]
gel electrophoresis and ESI-MS. […]

[2] = Solubility in KPi buffer by NMR with TMSP internal standard; details: 50 mM KPi aqueous buffer, pH 7, aqueous with cosolvent or surfactant or cyclodextrin, kinetic from dmso stock
[3] = pH 6.5, by NMR, KPi buffer, 5% DMSO-d6
[4] = pH 7.0, by NMR, KPi buffer, 5% DMSO-d6
[5] = pH 7.0, ratio to rate constant of 4q, acceleration (+) or deceleration (-)
[6] = pH 6.5, measured by UV titrations
[7] = pH 7.0, measured by UV titrations
[8] = pH 7.0, ratio to 4q, from value measured by UV titrations (footnote a)

| ΔTm at 100 µM (FGE-C341S) | ΔTm at 100 µM (p53-Y220C) | solubility [2] | SMILES | k [1] | rate constant (k) for the reaction with GSH [1, 3] | rate constant (k) for the reaction with GSH [1, 4] | k change (vs ref) [1, 5] | k/kref [1] | ΔΔG≠1exp [1] | rate constant (k) for the reaction with GSH [1, 6] | rate constant (k) for the reaction with GSH [1, 7] | k change (vs ref) [1, 8] | second order rate constant k with GSH ([1]; pH 7.0, KPi buffer) | times faster at pH 7.0 vs 6.5 ([1]; GSH) | times slower with GSH than with NACME ([1]; pH 7.0) |
| --- | --- | --- | --- | --- | --- | --- | --- | --- | --- | --- | --- | --- | --- | --- | --- |
| 0 °C | 0 °C | ≥ 2000 µM | Cc1cc(C)nc(S(C)(=O)=O)n1 [4a] | 0.0010 M⁻¹ s⁻¹ | 0.00038 ± 8e-05 M⁻¹ s⁻¹ | 0.001 M⁻¹ s⁻¹ | -25 fold | 0.040 | 1.91 kcal/mol | – | – | – | – | – | – |
| 0 °C | 0.2 °C | ≥ 2000 µM | COc1ccnc(S(C)(=O)=O)n1 [4b] | 0.0045 M⁻¹ s⁻¹ | 0.0013 ± 0.0008 M⁻¹ s⁻¹ | 0.0045 ± 0.0005 M⁻¹ s⁻¹ | -6 fold | 0.18 | 1.03 kcal/mol | – | – | – | – | – | – |
| -0.6 °C | -0.2 ± 0.1 °C | ≥ 2000 µM | Cc1ccnc(S(C)(=O)=O)n1 [4c] | 0.0043 M⁻¹ s⁻¹ | 0.0015 ± 0.0005 M⁻¹ s⁻¹ | 0.0043 ± 0.0008 M⁻¹ s⁻¹ | -6 fold | 0.17 | 1.05 kcal/mol | – | – | – | – | – | – |
| -0.4 ± 0.3 °C | 0.2 °C | ≥ 2000 µM | CS(=O)(=O)c1nccc(C(=O)O)n1 [4d] | 0.0050 M⁻¹ s⁻¹ | 0.0015 M⁻¹ s⁻¹ | 0.005 M⁻¹ s⁻¹ | -5 fold | 0.20 | 0.956 kcal/mol | – | – | – | – | – | – |
| -0.2 ± 0.3 °C | 0.2 °C | < 2000 µM | CS(=O)(=O)c1nccc(-c2ccccc2)n1 [4e] | – | 0.002 ± 0.0005 M⁻¹ s⁻¹ | 0.005 M⁻¹ s⁻¹ | -5 fold | – | – | – | – | – | – | – | – |
| 0 °C | -0.2 ± 0.1 °C | ≥ 2000 µM | COc1cc(OC)nc(S(C)(=O)=O)n1 [4f, 4,6-dimethoxy-2-methylsulfonylpyrimidine] | 0.010 M⁻¹ s⁻¹ | 0.003 ± 0.0005 M⁻¹ s⁻¹ | 0.01 M⁻¹ s⁻¹ | -3 fold | 0.40 | 0.55 kcal/mol | – | – | – | – | – | – |
| -0.4 ± 0.3 °C | -0.2 ± 0.1 °C | ≥ 2000 µM | CS(=O)(=O)c1nccc(N)n1 [4g] | 0.023 M⁻¹ s⁻¹ | 0.032 ± 0.006 M⁻¹ s⁻¹ | 0.023 ± 0.003 M⁻¹ s⁻¹ | ≈ | 0.92 | 0.0502 kcal/mol | – | – | – | – | – | – |
| -0.6 °C | 0.8 °C | – | CS(=O)(=O)c1ncc(Br)c(C(=O)O)n1 [4i] | – | 0.075 ± 0.035 M⁻¹ s⁻¹ | 0.3 ± 0.013 M⁻¹ s⁻¹ | +12 fold | – | – | 0.15 ± 0.09 M⁻¹ s⁻¹ | 0.64 ± 0.009 M⁻¹ s⁻¹ | +26 fold | – | – | – |
| -0.6 °C | -0.2 ± 0.1 °C | – | CS(=O)(=O)c1nccc(C(N)=O)n1 [4j] | – | 0.095 ± 0.015 M⁻¹ s⁻¹ | 0.3 ± 0.0025 M⁻¹ s⁻¹ | +12 fold | – | – | – | – | – | – | – | – |
| -0.4 ± 0.3 °C | 0.4 °C | ≥ 2000 µM | COC(=O)c1ccnc(S(C)(=O)=O)n1 [4k] | 2.8 M⁻¹ s⁻¹ | 0.26 ± 0.045 M⁻¹ s⁻¹ | – | – | 112 | -2.87 kcal/mol | 0.37 ± 0.063 M⁻¹ s⁻¹ | 2.8 ± 1.1 M⁻¹ s⁻¹ | +112 fold | – | – | – |
| -0.6 °C | 1.8 °C | ≥ 2000 µM | CS(=O)(=O)c1nccc(C(F)(F)F)n1 [4l] | 21 M⁻¹ s⁻¹ | – | – | – | 840 | -4.06 kcal/mol | 4.9 ± 0.48 M⁻¹ s⁻¹ | 21 ± 0.6 M⁻¹ s⁻¹ | +840 fold | ≈ 21 M^–1 s^–1 | – | – |
| -0.2 ± 0.3 °C | 0.2 °C | < 2000 µM | CS(=O)(=O)c1ncc(-c2ccccc2)cn1 [4p] | – | 0.01 ± 0.005 M⁻¹ s⁻¹ | 0.012 ± 0.0078 M⁻¹ s⁻¹ | -2 fold | – | – | – | – | – | – | – | – |
| -0.6 °C | -0.2 ± 0.1 °C | ≥ 2000 µM | CS(=O)(=O)c1ncccn1 [4q, 2-methylsulfonylpyrimidine] | 0.0250 M⁻¹ s⁻¹ | 0.004 ± 0.0016 M⁻¹ s⁻¹ | 0.025 ± 0.014 M⁻¹ s⁻¹ | – | 1 | 0 kcal/mol | – | – | – | ≈ 1.6 × 10^–2 M^–1 s^–1; also recorded: ≈ 1.2 × 10^–2 M^–1 s^–1 | approximately 5 times | approximately 3 times |
| -0.4 ± 0.3 °C | 0.4 °C | ≥ 2000 µM | CS(=O)(=O)c1ncc(Br)cn1 [4t] | 0.29 M⁻¹ s⁻¹ | 0.056 ± 0.034 M⁻¹ s⁻¹ | 0.29 ± 0.25 M⁻¹ s⁻¹ | +12 fold | 12 | -1.46 kcal/mol | – | – | – | – | – | – |
| -0.2 ± 0.3 °C | 0.4 °C | ≥ 2000 µM | CS(=O)(=O)c1ncc(I)cn1 [4u] | – | 0.025 ± 0.01 M⁻¹ s⁻¹ | 0.66 ± 0.01 M⁻¹ s⁻¹ | +26 fold | – | – | – | – | – | – | – | – |
| -0.4 ± 0.3 °C | 3 °C | ≥ 2000 µM | CS(=O)(=O)c1ncc(C(=O)O)cn1 [4v] | 30 M⁻¹ s⁻¹ | – | – | +1,200 fold | 1200 | -4.3 kcal/mol | 6.7 ± 3.1 M⁻¹ s⁻¹ | 30 ± 3.2 M⁻¹ s⁻¹ | – | – | – | – |
| -0.6 °C | 0.8 °C | ≥ 2000 µM | CS(=O)(=O)c1ncc(C(F)(F)F)cn1 [4x] | 1900 M⁻¹ s⁻¹ | – | – | +76,000 fold | 76000 | -6.69 kcal/mol | – | – | – | – | – | – |
| -0.2 ± 0.3 °C | 0.2 °C | ≥ 2000 µM | CC(C)(C)S(=O)(=O)c1ncccn1 [5a] | – | Ca. 0.03 mM-1.s-1 | 0.00018 ± 3e-05 M⁻¹ s⁻¹ | -139 fold | 0.0072 | 2.87 kcal/mol | – | – | – | – | – | – |
| -0.4 ± 0.3 °C | -0.2 ± 0.1 °C | ≥ 2000 µM | Nc1ccc(S(=O)(=O)c2ncccn2)cc1 [5b] | 0.0050 M⁻¹ s⁻¹ | 0.002 M⁻¹ s⁻¹ | 0.005 M⁻¹ s⁻¹ | -5 fold | 0.20 | 0.956 kcal/mol | – | – | – | – | – | – |
| -0.4 ± 0.3 °C | 0 °C | ≥ 2000 µM | CCCCS(=O)(=O)c1ncccn1 [5c] | – | 0.0028 ± 0.0003 M⁻¹ s⁻¹ | 0.01 M⁻¹ s⁻¹ | -3 fold | – | – | – | – | – | – | – | – |
| -0.4 ± 0.3 °C | 0 °C | ≥ 2000 µM | O=S(=O)(c1ccccc1)c1ncccn1 [5d] | 0.035 M⁻¹ s⁻¹ | 0.01 ± 0.005 M⁻¹ s⁻¹ | 0.035 ± 0.015 M⁻¹ s⁻¹ | ≈ | 1.4 | -0.198 kcal/mol | – | – | – | – | – | – |
| -0.6 °C | 1.8 °C | ≥ 2000 µM | O=S(=O)(CC(F)(F)F)c1ncccn1 [5e] | 0.23 M⁻¹ s⁻¹ | 0.04 ± 0.005 M⁻¹ s⁻¹ | 0.23 ± 0.05 M⁻¹ s⁻¹ | +9 fold | 9.2 | -1.29 kcal/mol | – | – | – | – | – | – |
